According to PMC11642940, “A New Demand for Improved Selectivity and Potency of Cyanine Dyes as Antiproliferative Agents Against Colorectal Cancer Cells” (Molecules, 2024):

Key:
[1] = system: NHDF cell line; assay: Phototoxicity assay (MTT after white light irradiation); type: cell-based; conditions: Homo sapiens, light or radiation study, 30 min white light irradiation (30 W RGB LED) after 48 h, 72 h in total
Method: While this work focused on monomethine cyanine dyes designed to be used at the outer edge of the “phototherapeutic window” (650–850 nm), photocytotoxicity and photostability studies were carried out for cyanines 5 and 10, as part of an effort to determine whether there would be synergistic action from light exposure on their cytotoxicity. A 30 W RGB LED light source, previously validated by our research group, was applied to the NHDF cell line using the MTT assay. […] These reductions in cytotoxicity align with previous studies on similar compounds and are likely due to some level of photodegradation.
A phototoxicity evaluation was performed on the NHDF cell line with a similar methodology to the MTT assay and following previously validated methods. After 48 h of incubation with increasing concentrations ranging from 0.001 to 100 μM, cells were subjected to 30 min of constant irradiation with the white light of a Luxtar (Yancheng, Jiangsu, China) RGBW LED projector (220–240 V and 30 W). After this irradiation, the cells were incubated at 37 °C for an additional 24 h (72 h in total). This assay was performed in quadruplicate, and two independent assays were realized.

[2] = Photostability assay (absorbance decay under white light); type: physicochemical; conditions: 10 µM in PBS, after 30 min white light irradiation; 436 nm for 5, 439 nm for 10
Method: To further explore this, the photostability of these dyes was tested. […] A gradual linear degradation continued for at least 120 min. This degradation likely explains the decreased cytotoxicity observed in the photocytotoxicity assay.
In a 96-well plate, 100 µL of dyes 5 and 10 at a concentration of 10 µM, prepared from 10 mM DMSO stock solution diluted in PBS, was added at each well. The photostability assay was performed by irradiating the as previously described for photocytotoxicity evaluation, repeated several times up to 120 min. Spectrophotometric readings were taken over the maximum absorption wavelength of each dye (436 nm for 5 and 439 nm for 10). Two independent experiments were performed in quadruplicate, and the obtained absorbance values were normalized.

[3] = target: T1, topoisomerase II (Topo II) (Homo sapiens, UniProt P11388); assay: Topoisomerase II inhibitory assay (pRYG DNA relaxation, agarose gel); type: biochemical; conditions: 50 µM, 5.0 units Topo II, 250.0 ng pRYG DNA, mean ± SD of two assays
T1 construct: purchased TopoGEN Inc. (Buena Vista, CO, USA) 1009-1
Method: To do so, the impact of cyanines on Topo II activity was assessed using a pRYG DNA substrate in the presence and absence of the dyes. This was monitored via a Topo II drug screening kit followed by agarose gel electrophoresis. […] All samples applied to the agarose gel contained 5.0 units of Topo II and 250.0 ng of pRYG DNA as the substrate. Linear pRYG DNA (Lane DNA marker) served as the reference control for the DNA band positions, and 50 µM VP-16 (Lane 3) was used as a positive control. […]
The formation of relaxed DNA products, indicating Topo II activity, is visible in Lane 1 (incubation of pRYG DNA with Topo II) of Figure 8A. […] The intensity of the relaxed DNA bands from two independent experiments was quantified for all samples and normalized to the Topo II activity in the absence of inhibitors (No drug sample, Lane 1) using Image Lab, Version 6.1 (Figure 8B). […]
Cyanine stock solutions in DMSO were further diluted with Tris-HCl (DMSO:Tris-HCl–1:9) to the concentrations desired for assays. […] Electrophoresis was run at 110 V for 40 min and analyzed under ultraviolet (UV) light using a FireReader Imaging System (UVITEC, Cambridge, UK). Band intensities were measured using the software Image Lab, Version 6.1 (BioRad Laboratories, Hercules, CA, USA). […]

[4] = system: Caco-2 cells; assay: Fluorescence microscopy (cell penetration, intracellular localization); type: cell-based, human; conditions: Caco-2, 1 µM, 20 h, Hoescht 33342 counterstain
Method: The cells were incubated with the dyes for 20 h, followed by fixation and staining with Hoescht 33342, a commonly used cell-permeant nucleic acid stain.
Fluorescence microscopy was used to confirm whether the compounds under study cross the cell membrane, and to understand where they are located within the cell (nucleus and/or cytoplasm). To this end, the procedure previously described in Lima et al. was followed. Hoescht 33342 was used as a specific marker. Cells were seeded in 24-well culture plates containing sterile circular coverslips of 15 mm diameter. After 48 h for cell adhesion, they were incubated with the compounds for 20 h. After this incubation period, the cells were washed three times with PBS and the fixation process was carried out. To do this, the contents of the wells were removed, and a 4% formalin solution was added until the wells were covered, followed by an incubation at room temperature for 15 min. Then, the washing process was repeated three times with PBS, and the cells were then incubated with a solution of Hoescht 33342 (1:500) for 10 min, in the dark and at room temperature. Subsequently, the wells were washed again with PBS and the slides were mounted with permanent mounting medium (Dako) and left to dry in a cool and dry place for 24 h. […]

[5] = system: Caco-2 cells; assay: Caco-2 morphological analysis (optical microscopy); conditions: 72 h
Method: Sorbitol and 5-FU were used as positive controls, while untreated cells served as the negative control.
Caco-2 cells near confluency were trypsinized, counted, and then seeded at 3 × 10^4 cells/mL (3 mL) in 35 mm cell culture dishes previously treated for tissue culture. After cell adherence (48 h), they were incubated with solutions under study for 72 h in the absence of light. The cellular morphology was verified every 24 h using a CKX41 SF inverted microscope (Olympus, Tokyo, Japan) with 10, 20, or 40× objectives. A DC6 V digital camera (Olympus, Tokyo, Japan) coupled to the microscope was used to capture cell imaging. The morphology of cells in the presence or absence of treatments was compared.

T1 sequence (P11388 whole entry): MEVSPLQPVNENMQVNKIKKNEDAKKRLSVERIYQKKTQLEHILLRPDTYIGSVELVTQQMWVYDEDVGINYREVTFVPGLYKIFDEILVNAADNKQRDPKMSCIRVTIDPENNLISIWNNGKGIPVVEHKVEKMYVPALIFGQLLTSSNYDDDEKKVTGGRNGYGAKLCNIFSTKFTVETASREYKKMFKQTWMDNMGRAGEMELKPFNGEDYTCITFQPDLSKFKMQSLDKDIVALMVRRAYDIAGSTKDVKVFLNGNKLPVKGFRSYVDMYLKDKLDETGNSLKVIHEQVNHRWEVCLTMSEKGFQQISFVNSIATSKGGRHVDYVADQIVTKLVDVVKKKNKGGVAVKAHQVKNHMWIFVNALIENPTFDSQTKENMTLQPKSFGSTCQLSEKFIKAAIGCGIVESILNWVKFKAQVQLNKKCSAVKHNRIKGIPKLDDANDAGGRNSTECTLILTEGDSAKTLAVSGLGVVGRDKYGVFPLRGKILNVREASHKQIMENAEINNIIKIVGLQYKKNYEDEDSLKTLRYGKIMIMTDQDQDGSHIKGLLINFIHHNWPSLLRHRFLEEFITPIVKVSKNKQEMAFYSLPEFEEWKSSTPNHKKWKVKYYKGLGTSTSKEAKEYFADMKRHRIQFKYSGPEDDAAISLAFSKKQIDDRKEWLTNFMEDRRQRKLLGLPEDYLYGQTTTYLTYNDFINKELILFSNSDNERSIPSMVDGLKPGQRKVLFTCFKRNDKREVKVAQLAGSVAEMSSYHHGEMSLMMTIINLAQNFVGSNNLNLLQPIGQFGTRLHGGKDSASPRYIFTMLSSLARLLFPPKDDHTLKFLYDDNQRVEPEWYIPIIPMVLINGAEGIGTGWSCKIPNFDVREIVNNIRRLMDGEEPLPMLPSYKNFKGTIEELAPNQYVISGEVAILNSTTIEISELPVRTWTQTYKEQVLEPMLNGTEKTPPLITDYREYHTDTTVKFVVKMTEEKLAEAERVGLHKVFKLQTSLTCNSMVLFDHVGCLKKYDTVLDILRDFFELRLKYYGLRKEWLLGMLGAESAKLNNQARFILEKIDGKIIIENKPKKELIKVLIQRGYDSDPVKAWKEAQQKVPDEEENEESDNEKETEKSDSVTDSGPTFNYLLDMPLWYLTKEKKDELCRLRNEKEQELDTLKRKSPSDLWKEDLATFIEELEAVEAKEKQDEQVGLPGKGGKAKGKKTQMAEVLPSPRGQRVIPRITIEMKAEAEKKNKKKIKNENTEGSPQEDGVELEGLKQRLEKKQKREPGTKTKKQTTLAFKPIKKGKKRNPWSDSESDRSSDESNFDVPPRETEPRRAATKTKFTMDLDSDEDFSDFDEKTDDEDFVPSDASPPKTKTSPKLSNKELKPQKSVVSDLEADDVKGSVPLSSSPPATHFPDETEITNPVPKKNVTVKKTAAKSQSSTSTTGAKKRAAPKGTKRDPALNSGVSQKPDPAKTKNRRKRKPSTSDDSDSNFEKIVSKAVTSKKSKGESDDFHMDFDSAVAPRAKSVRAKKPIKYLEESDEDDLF

| SMILES | IC50 [1] [µM] | reduction in absorbance at maximum wavelength [2] [%] | relative intensity of relaxed DNA band (normalized to No drug sample) [3] | cell membrane crossing, intracellular localization and fluorescence [4] | morphological changes of Caco-2 cells ([5]; 1 µM) | morphological changes of Caco-2 cells ([5]; 10 µM) |
| --- | --- | --- | --- | --- | --- | --- |
| CN1C(=Cc2oc3ccccc3[n+]2C)C=Cc2ccccc21.Cc1ccc(S(=O)(=O)[O-])cc1 [Dye 5, 3-Methyl-2-((1-methylquinolin-2(1H)-ylidene)methyl)benzo[d]oxazol-3-ium 4-methylbenzenesulfonate] | 4.07 | 3.7 | 0.31 ± 0.063 | stain a specific organelle within the nucleoplasm but does not localize in the DNA | a few apoptotic bodies | – |
| CCN1C(=Cc2sc3cc([N+](=O)[O-])ccc3[n+]2CC)Sc2ccccc21.Cc1ccc(S(=O)(=O)[O-])cc1 [Dye 10, 3-Ethyl-2-((3-ethylbenzo[d]thiazol-2(3H)-ylidene)methyl)-6-nitrobenzo[d]thiazol-3-ium 4-methylbenzenesulfonate] | 34.1 | 2.5 | 0.65 ± 0.024 | significantly lower fluorescence intensity compared to dye 5 | – | noticeable reduction in the size of Caco-2 cells |
